Numbered stars: 1 amine (or outer) side, 2 acyl side, 3 side chain; on linkers, the order of the positions; unused ones are H or OH. Square brackets hold non-standard residues; d marks the D form. Peptide text beside a SMILES is read from it. * marks the point of attachment. Propanoyl(3-indol-3-yl) = O=C(CCc1c[nH]c2ccccc12)*; Indole2carbonyl(5-F) = O=C(c1cc2cc(F)ccc2[nH]1)*; Phenylacetyl(4-CF3) = O=C(Cc1ccc(C(F)(F)F)cc1)*; Propanoyl(3-(4-F-phenyl)) = O=C(CCc1ccc(F)cc1)*; Propanoyl(3-(4-MeO-Ph)) = COc1ccc(CCC(=O)*)cc1; Hydrocinnamoyl(2,4-F2) = O=C(CCc1ccc(F)cc1F)*; Propanoyl(3-(4-Cl-Ph)) = O=C(CCc1ccc(Cl)cc1)*; Phenylacetyl(4-Cl) = O=C(Cc1ccc(Cl)cc1)*; Desaminotyrosyl = O=C(CCc1ccc(O)cc1)*; d2Nal = N[C@H](Cc1ccc2ccccc2c1)C(=O)O; X16 = O=C(c1cc2ccccc2[nH]1)*; Morpholide = C1CN(*)CCO1; X15 = O=C(Cc1ccc(O)cc1)*; CO = O=C([*:1])[*:2]
What follows are compounds tested against T1, LHRH receptors (Rattus norvegicus, UniProt P30969) (assay: Receptor Binding (radioligand receptor binding assay)). Details: table 3; rat pituitary membranes, radioiodinated [D-Leu^6 -des Gly^10 ]-LHRH ethyl amide 50 pM, 2 hours at 4° C.; read-out: Receptor Binding pkI (converted).
T1 construct: Pituitary membranes containing LHRH receptors are prepared in batches from quick-frozen rat pituitaries; tissue Hilltop Labs; host or cells: rat pituitary membranes
T1 sequence (P30969 1-327): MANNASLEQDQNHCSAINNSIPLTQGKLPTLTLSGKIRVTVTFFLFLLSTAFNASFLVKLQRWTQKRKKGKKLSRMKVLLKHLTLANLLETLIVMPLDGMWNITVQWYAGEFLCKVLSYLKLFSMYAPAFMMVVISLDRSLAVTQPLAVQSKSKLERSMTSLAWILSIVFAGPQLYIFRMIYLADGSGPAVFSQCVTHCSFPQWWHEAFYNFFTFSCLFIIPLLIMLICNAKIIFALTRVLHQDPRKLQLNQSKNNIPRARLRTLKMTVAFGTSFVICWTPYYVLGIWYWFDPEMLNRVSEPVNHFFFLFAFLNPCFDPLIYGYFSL

Ki [nM]	Structure (SMILES)
0.0316	CCNC(=O)[C@@H]1CCCN1C(=O)[C@H](CCCN=C(N)N)NC(=O)[C@H](CC(C)C)NC(=O)[C@@H](Cc1c[nH]c2ccccc12)NC(=O)[C@H](Cc1ccc(O)cc1)NC(=O)[C@H](CO)NC(=O)[C@@H](Cc1c[nH]c2ccccc12)NC(=O)CCc1ccc(F)cc1F [Compound 90, (3-9)[N-(3-(2,4-Difluorophenyl)propionyl) -D-Trp^3,6 -Pro^9 NHEt]LHRH] ({Hydrocinnamoyl(2,4-F2)}-[dW]SY[dW]LRP-NHEt)
0.0288	CCNC(=O)[C@@H]1CCCN1C(=O)[C@H](CCCNC(=N)N)NC(=O)[C@H](CC(C)C)NC(=O)[C@@H](Cc1c[nH]c2ccccc12)NC(=O)[C@H](Cc1ccc(O)cc1)NC(=O)[C@H](CO)NC(=O)[C@@H](Cc1c[nH]c2ccccc12)NC(=O)CCc1ccc(F)cc1 [Compound 91, (3-9)[N-(3-(4-Fluorophenyl)propionyl) -D-Trp^3,6 Pro^9 NHEt]LHRH] ({Propanoyl(3-(4-F-phenyl))}-[dW]SY[dW]LRP-NHEt)
0.0316	CCNC(=O)[C@@H]1CCCN1C(=O)[C@H](CCCN=C(N)N)NC(=O)[C@H](CC(C)C)NC(=O)[C@@H](Cc1ccc(O)cc1)NC(=O)[C@H](Cc1ccc(O)cc1)NC(=O)[C@H](CO)NC(=O)[C@H](Cc1c[nH]c2ccccc12)NC(=O)CCc1ccc(F)cc1 [Compound 92, (3-9)[N-(3-(4-Fluorophenyl)propionyl) -Trp^3 -D-Tyr^6 -Pro^9 NHEt]LHRH] ({Propanoyl(3-(4-F-phenyl))}-WSY[dY]LRP-NHEt)
0.0331	CCNC(=O)[C@@H]1CCCN1C(=O)[C@H](CCCNC(=N)N)NC(=O)[C@H](CC(C)C)NC(=O)[C@@H](Cc1c[nH]c2ccccc12)NC(=O)[C@H](Cc1ccc(O)cc1)NC(=O)[C@H](CO)NC(=O)[C@H](Cc1c[nH]c2ccccc12)NC(=O)CCc1ccc(F)cc1 [Compound 97, (3-9)[N-(3-(4-Fluorophenyl)propionyl) -Trp^3 -D-Trp^6 -Pro^9 NHEt]LHRH] ({Propanoyl(3-(4-F-phenyl))}-WSY[dW]LRP-NHEt)
0.0525	CCNC(=O)[C@@H]1CCCN1C(=O)[C@H](CCCNC(=N)N)NC(=O)[C@H](CC(C)C)NC(=O)[C@@H](Cc1c[nH]c2ccccc12)NC(=O)[C@H](Cc1ccc(O)cc1)NC(=O)[C@H](CO)NC(=O)[C@H](Cc1c[nH]c2ccccc12)NC(=O)CCc1ccc(Cl)cc1 [Compound 98, (3-9)[N-(3-(4-Chlorophenyl)propionyl) -Trp^3 -D-Trp^6 -Pro^9 NHEt]LHRH] ({Propanoyl(3-(4-Cl-Ph))}-WSY[dW]LRP-NHEt)
0.0832	CCNC(=O)[C@@H]1CCCN1C(=O)[C@H](CCCN=C(N)N)NC(=O)[C@H](CC(C)C)NC(=O)[C@@H](Cc1c[nH]c2ccccc12)NC(=O)[C@H](Cc1ccc(O)cc1)NC(=O)[C@H](CO)NC(=O)[C@H](Cc1c[nH]c2ccccc12)NC(=O)CCc1ccc(O)cc1 [Compound 99, (3-9)[N-(3-(4-Hydroxyphenyl)propionyl) -Trp^3 -D-Trp^6 -Pro^9 NHEt]LHRH] (Desaminotyrosyl-WSY[dW]LRP-NHEt)
0.562	CCNC(=O)[C@@H]1CCCN1C(=O)[C@H](CCCN=C(N)N)NC(=O)[C@H](CC(C)C)NC(=O)[C@@H](Cc1c[nH]c2ccccc12)NC(=O)[C@H](Cc1ccc(O)cc1)NC(=O)[C@H](CO)NC(=O)[C@H](Cc1c[nH]c2ccccc12)NC(=O)Cc1ccc(O)cc1 [Compound 105, (3-9)[N-(4-Hydroxyphenyl)acetyl-Trp^3 -D -Trp^6 -Pro^9 NHEt]LHRH] (X15-WSY[dW]LRP-NHEt)

Continued, compound first:

Structure (SMILES)	Ki [nM]
CCNC(=O)[C@@H]1CCCN1C(=O)[C@H](CCCNC(=N)N)NC(=O)[C@H](CC(C)C)NC(=O)[C@@H](Cc1ccc(O)cc1)NC(=O)[C@H](Cc1ccc(O)cc1)NC(=O)[C@H](CO)NC(=O)[C@@H](Cc1ccc(O)cc1)NC(=O)CCc1ccc(F)cc1 [Compound 93, (3-9)[N-(3-(4-Fluorophenyl)propionyl) -D-Tyr^3,6 -Pro^9 NHEt]LHRH] ({Propanoyl(3-(4-F-phenyl))}-[dY]SY[dY]LRP-NHEt)	0.0158
CCNC(=O)[C@@H]1CCCN1C(=O)[C@H](CCCNC(=N)N)NC(=O)[C@H](CC(C)C)NC(=O)[C@@H](Cc1ccc2ccccc2c1)NC(=O)[C@H](Cc1ccc(O)cc1)NC(=O)[C@H](CO)NC(=O)[C@@H](Cc1c[nH]c2ccccc12)NC(=O)CCc1ccc(F)cc1 [Compound 94, (3-9)[N-(3-(4-Fluorophenyl)propionyl) -D-Trp^3 -D-2-Nal^6 -Pro^9 NHEt]LHRH] ({Propanoyl(3-(4-F-phenyl))}-[dW]SY[d2Nal]LRP-NHEt)	0.309
CCNC(=O)[C@@H]1CCCN1C(=O)[C@H](CCCNC(=N)N)NC(=O)[C@H](CC(C)C)NC(=O)[C@@H](Cc1c[nH]c2ccccc12)NC(=O)[C@H](Cc1ccc(O)cc1)NC(=O)[C@H](CO)NC(=O)[C@H](Cc1c[nH]c2ccccc12)NC(=O)CCc1ccc(OC)cc1 [Compound 95, (3-9)[N-(3-(4-Methoxyphenyl)propionyl) -Trp^3 -D-Trp^6 -Pro^9 NHEt]LHRH] ({Propanoyl(3-(4-MeO-Ph))}-WSY[dW]LRP-NHEt)	0.0776
CCNC(=O)[C@@H]1CCCN1C(=O)[C@H](CCCN=C(N)N)NC(=O)[C@H](CC(C)C)NC(=O)[C@@H](Cc1c[nH]c2ccccc12)NC(=O)[C@H](Cc1ccc(O)cc1)NC(=O)[C@@H]1CCCN1C(=O)[C@@H](Cc1c[nH]c2ccccc12)NC(=O)CCc1ccc(F)cc1 [Compound 100, (3-9)[N-(3-(4-Fluorophenyl)propionyl)-D -Trp^3,6 -Pro^4,9 NHEt]LHRH] ({Propanoyl(3-(4-F-phenyl))}-[dW]PY[dW]LRP-NHEt)	2.88
CCNC(=O)[C@@H]1CCCN1C(=O)[C@H](CCCN=C(N)N)NC(=O)[C@H](CC(C)C)NC(=O)[C@@H](Cc1c[nH]c2ccccc12)NC(=O)[C@H](Cc1ccc(O)cc1)NC(=O)[C@H](CO)NC(=O)[C@H](Cc1c[nH]c2ccccc12)NC(=O)c1cc2ccccc2[nH]1 [Compound 101, (3-9)[N-(2-Indolecarbonyl)-Trp^3 -D-Trp^6 -Pro^9 NHEt]LHRH] (X16-WSY[dW]LRP-NHEt)	12.6
CCNC(=O)[C@@H]1CCCN1C(=O)[C@H](CCCNC(=N)N)NC(=O)[C@H](CC(C)C)NC(=O)[C@@H](Cc1c[nH]c2ccccc12)NC(=O)[C@H](Cc1ccc(O)cc1)NC(=O)[C@H](CO)NC(=O)[C@@H](Cc1c[nH]c2ccccc12)NC(=O)c1cc2cc(F)ccc2[nH]1 [Compound 102, (3-9)[N-(5-Fluoro-2-indolecarbonyl)-D -Trp^3,6 -Pro^9 -NHEt]LHRH] ({Indole2carbonyl(5-F)}-[dW]SY[dW]LRP-NHEt)	17.4
CCNC(=O)[C@@H]1CCCN1C(=O)[C@H](CCCNC(=N)N)NC(=O)[C@H](CC(C)C)NC(=O)[C@@H](Cc1c[nH]c2ccccc12)NC(=O)[C@H](Cc1ccc(O)cc1)NC(=O)[C@H](CO)NC(=O)[C@@H](Cc1c[nH]c2ccccc12)NC(=O)CCc1c[nH]c2ccccc12 [Compound 103, (3-9)[N-(3-Indolepropionyl)-D-Trp^3,6 -Pro^9 -NHEt]LHRH] ({Propanoyl(3-indol-3-yl)}-[dW]SY[dW]LRP-NHEt)	0.0794
CCNC(=O)[C@@H]1CCCN1C(=O)[C@H](CCCNC(=N)N)NC(=O)[C@H](CC(C)C)NC(=O)[C@@H](Cc1c[nH]c2ccccc12)NC(=O)[C@H](Cc1ccc(O)cc1)NC(=O)[C@H](CO)NC(=O)[C@H](Cc1c[nH]c2ccccc12)NC(=O)Cc1ccc(Cl)cc1 [Compound 104, (3-9)[N-(4-Chlorophenyl)acetyl-Trp^3 -D-Trp^6 -Pro^9 NHEt]LHRH] ({Phenylacetyl(4-Cl)}-WSY[dW]LRP-NHEt)	0.832
CCNC(=O)[C@@H]1CCCN1C(=O)[C@H](CCCNC(=N)N)NC(=O)[C@H](CC(C)C)NC(=O)[C@H](Cc1c[nH]c2ccccc12)NC(=O)[C@H](Cc1ccc(O)cc1)NC(=O)[C@H](CO)NC(=O)[C@H](Cc1c[nH]c2ccccc12)NC(=O)Cc1ccc(C(F)(F)F)cc1 [Compound 106, (3-9)[N-(4-Trifluoromethylphenyl)acetyl -Trp^3,6 -Pro^9 NHEt]LHRH] ({Phenylacetyl(4-CF3)}-WSYWLRP-NHEt)	0.851
CCNC(=O)[C@@H]1CCCN1C(=O)[C@H](CCCNC(=N)N)NC(=O)[C@H](CC(C)C)NC(=O)[C@@H](Cc1c[nH]c2ccccc12)NC(=O)[C@H](Cc1ccc(O)cc1)NC(=O)[C@H](CO)NC(=O)[C@@H](Cc1c[nH]c2ccccc12)NC(=O)[C@H](Cc1ccccc1)NC(=O)N1CCOCC1 [Compound 107, (2 9)[N-(N-alpha-Morpholinocarbonyl)-Phe^2 -D-Trp^3,6 -Pro^9 NHEt]LHRH] ({Morpholide-CO}-F[dW]SY[dW]LRP-NHEt)	0.257
CCNC(=O)[C@@H]1CCCN1C(=O)[C@H](CCCNC(=N)N)NC(=O)[C@H](CC(C)C)NC(=O)[C@@H](Cc1c[nH]c2ccccc12)NC(=O)[C@H](Cc1ccc(O)cc1)NC(=O)[C@H](CO)NC(=O)[C@@H](Cc1ccc(O)cc1)NC(=O)[C@H](Cc1ccccc1)NC(=O)N1CCOCC1 [Compound 108, (2-9)[N-(N-alpha-Morpholinocarbonyl)-Phe^2 -D-Tyr^3 -D-Trp^6 -Pro^9 NHEt]LHRH] ({Morpholide-CO}-F[dY]SY[dW]LRP-NHEt)	0.182
CCNC(=O)[C@@H]1CCCN1C(=O)[C@H](CCCNC(=N)N)NC(=O)[C@H](CC(C)C)NC(=O)[C@@H](Cc1c[nH]c2ccccc12)NC(=O)[C@H](Cc1ccc(O)cc1)NC(=O)[C@H](CO)NC(=O)[C@H](Cc1c[nH]c2ccccc12)NC(=O)[C@H](Cc1c[nH]cn1)NC(=O)N1CCOCC1 [Compound 109, (2-9)[N-(N-alpha-Morpholinocarbonyl)-His^2 -D-Trp^6 -Pro^9 NHEt]LHRH] ({Morpholide-CO}-HWSY[dW]LRP-NHEt)	0.316

Reference: patent US5140009A (Tap Pharmaceuticals, Inc., priority 1990, dated 1992)
